Results published in US20060247261A1 (priority 2002, published 2006).

Target: T1, human cannabinoid CB2 receptor (Homo sapiens, UniProt P34972)
T1 construct: expressed in transfected cells; host or cells: Saccharomyces cerevisiae strain MMY23 (expresses a chimeric Gpa1/human Galpha-i3 G-protein alpha subunit)
Test: Cannabinoid CB2 receptor agonist activity, yeast reporter assay
Assay type: cell-based
Conditions: for Emax: read-out: efficacy (Emax) at the cloned human cannabinoid CB2 receptor
Text: Yeast (Saccharomyces cerevisiae) cells expressing the human cannabinoid CB2 receptor were generated by integration of an expression cassette into the ura3 chromosomal locus of yeast strain MMY23. This cassette consisted of DNA sequence encoding the human CB2 receptor flanked by the yeast GPD promoter to the 5′ end of CB2 and a yeast transcriptional terminator sequence to the 3′ end of CB2. MMY23 expresses a yeast/mammalian chimeric G-protein alpha subunit in which the C-terminal 5 amino acids of Gpa1 are replaced with the C-terminal 5 amino acids of human Gαi3 (as described in Brown et al. (2000), Yeast 16:11-22).
Agonists were prepared as 10 mM stocks in DMSO. […] Agonist solutions in DMSO (1% final assay volume) were transferred into black, clear bottom, microtitre plates from NUNC (96- or 384-well). […] Fluorescence was plotted against compound concentration and iteratively curve fitted using a four parameter fit to generate a concentration effect value.

T1 sequence (P34972 whole entry): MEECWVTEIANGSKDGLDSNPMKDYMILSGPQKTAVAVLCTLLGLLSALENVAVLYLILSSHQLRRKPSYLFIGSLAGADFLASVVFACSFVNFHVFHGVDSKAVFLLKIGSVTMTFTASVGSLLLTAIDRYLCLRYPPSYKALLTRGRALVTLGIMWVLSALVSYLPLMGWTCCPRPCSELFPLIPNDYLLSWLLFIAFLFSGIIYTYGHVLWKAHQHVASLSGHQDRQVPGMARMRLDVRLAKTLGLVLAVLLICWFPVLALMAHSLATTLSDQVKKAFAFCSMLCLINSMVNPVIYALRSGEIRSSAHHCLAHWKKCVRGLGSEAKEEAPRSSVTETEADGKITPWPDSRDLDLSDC

Compound	EC50 [µM]	Emax [%]
CN(Cc1ccccc1)C(=O)c1cnc(Nc2ccc(Cl)cc2)nc1C(F)(F)F [Example 45, 2-(4-Chloro-phenylamino)-4-trifluoromethyl-pyrimidine-5-carboxylic acid N-benzyl-N-methyl-amide]	> 1	< 50
COc1ccc(Nc2ncc(C(=O)NCc3ccccc3)c(C(F)(F)F)n2)cc1 [Example 46, 2-(4-Methoxy-phenylamino)-4-trifluoromethyl-pyrimidine-5-carboxylic acid N-benzylamide]	> 1	< 50
COc1ccc(Nc2ncc(C(=O)N(C)Cc3ccccc3)c(C(F)(F)F)n2)cc1 [Example 47, 2-(4-Methoxy-phenylamino)-4-trifluoromethyl-pyrimidine-5-carboxylic acid N-benzyl-N-methyl-amide]	> 1	< 50
CN(Cc1ccccc1)C(=O)c1cnc(Nc2cccc(C#N)c2)nc1C(F)(F)F [Example 48, 2-(3-Cyano-phenylamino)-4-trifluoromethyl-pyrimidine-5-carboxylic acid N-benzyl-N-methyl-amide]	> 1	< 50
CN(Cc1ccccc1)C(=O)c1cnc(Nc2ccc(C#N)cc2)nc1C(F)(F)F [Example 49, 2-(4-Cyano-phenylamino)-4-trifluoromethyl-pyrimidine-5-carboxylic acid N-benzyl-N-methyl-amide]	> 1	< 50
COc1cccc(CNC(=O)c2cnc(Nc3cccc(Cl)c3)nc2C(F)(F)F)c1 [Example 50, 2-(3-Chloro-phenylamino)-4-trifluoromethyl-pyrimidine-5-carboxylic acid N-(3-methoxybenzyl)amide]	> 1	< 50
O=C(NCc1ccccc1Cl)c1cnc(Nc2cccc(Cl)c2)nc1C(F)(F)F [Example 51, 2-(3-Chloro-phenylamino)-4-trifluoromethyl-pyrimidine-5-carboxylic acid N-(2-chlorobenzyl)amide]	> 1	< 50
O=C(NCc1cccc(Cl)c1)c1cnc(Nc2cccc(Cl)c2)nc1C(F)(F)F [Example 52, 2-(3-Chloro-phenylamino)-4-trifluoromethyl-pyrimidine-5-carboxylic acid N-(3-chlorobenzyl)amide]	> 1	< 50
CCN(Cc1ccccc1)C(=O)c1cnc(Nc2ccccc2Cl)nc1C(F)(F)F [Example 53, 2-(2-Chloro-phenylamino)-4-trifluoromethyl-pyrimidine-5-carboxylic acid N-benzyl-N-ethyl-amide]	> 1	< 50
CN(Cc1ccccc1)C(=O)c1cnc(Nc2ccc(Cl)cc2Cl)nc1C(F)(F)F [Example 54, 2-(2,4-Dichloro-phenylamino)-4-trifluoroniethyl-pyrimidine-5-carboxylic acid N-benzyl-N methyl-amide]	> 1	< 50
CN(Cc1ccccc1)C(=O)c1cnc(Nc2ccc(Cl)c(Cl)c2)nc1C(F)(F)F [Example 55, 2-(3,4-Dichloro-phenylamino)-4-trifluoromethyl-pyrimidine-5-carboxylic acid N-benzyl-N-methyl-amide]	> 1	< 50
O=C(NCc1ccccc1)c1cnc(Nc2cc(Cl)ccc2Cl)nc1C(F)(F)F [Example 56, 2-(2,5-Dichloro-phenylamino)-4-trifluoromethyl-pyrimidine-5-carboxylic acid N-benzylamide]	> 1	< 50
CN(Cc1ccccc1)C(=O)c1cnc(Nc2cc(Cl)cc(Cl)c2)nc1C(F)(F)F [Example 57, 2-(3,5-Dichloro-phenylamino)-4-trifluoromethyl-pyrimidine-5-carboxylic acid N-benzyl-N-methyl-amide]	> 1	< 50
CN(Cc1ccccc1)C(=O)c1cnc(Nc2cc(Cl)ccc2Cl)nc1C(F)(F)F [Example 58, 2-(2,5-Dichloro-phenylamino)-4-trifluoromethyl-pyrimidine-5-carboxylic acid N-benzyl-N-methyl-amide]	> 1	< 50
